Patent publication US10087217B2 (priority 2013, dated 2018)

Tested on: U87 cells
Assay: Competitive inhibition of integrin targeted transduction mediated by AAV2^N587+1/azido+RGD
Assay type: cell-based

Substance: dibenzocyclooctyne [DIBO]
- competitive inhibition of DIBO-RGD coupling effect: competitively inhibit
